Test results reported in ChEMBL document CHEMBL4270593, “Novel spiroindoline HDAC inhibitors: Synthesis, molecular modelling and biological studies” (Eur J Med Chem, 2018).
Calls of active or inactive are those of the source. The rule behind the calls is not given here.

Legend:
Homo sapiens [1] = species: Homo sapiens; experiment: Selectivity ratio of IC50 for human recombinant C-terminal His/FLAG-tagged full length HDAC1 to IC50 for N-terminal GST-tagged full length HDAC6
Homo sapiens [2] = species: Homo sapiens; experiment: Selectivity ratio of IC50 for human recombinant C-terminal His/FLAG-tagged full length HDAC2 to IC50 for human recombinant N-terminal GST-tagged full length HDAC6
Homo sapiens [3] = species: Homo sapiens; experiment: Selectivity ratio of IC50 for human recombinant C-terminal His-tagged full length HDAC3/NcoR2 to IC50 for human recombinant N-terminal GST-tagged full length HDAC6
[4] = molecular target: T1, Protein deacetylase HDAC6 (Homo sapiens, UniProt Q9UBN7); experiment: Inhibition of human recombinant N-terminal GST-tagged full length HDAC6 expressed in insect SF9 cells using fluorogenic ZMAL as substrate after 90 mins by fluorescence-based assay
T1 sequence (Q9UBN7 whole entry): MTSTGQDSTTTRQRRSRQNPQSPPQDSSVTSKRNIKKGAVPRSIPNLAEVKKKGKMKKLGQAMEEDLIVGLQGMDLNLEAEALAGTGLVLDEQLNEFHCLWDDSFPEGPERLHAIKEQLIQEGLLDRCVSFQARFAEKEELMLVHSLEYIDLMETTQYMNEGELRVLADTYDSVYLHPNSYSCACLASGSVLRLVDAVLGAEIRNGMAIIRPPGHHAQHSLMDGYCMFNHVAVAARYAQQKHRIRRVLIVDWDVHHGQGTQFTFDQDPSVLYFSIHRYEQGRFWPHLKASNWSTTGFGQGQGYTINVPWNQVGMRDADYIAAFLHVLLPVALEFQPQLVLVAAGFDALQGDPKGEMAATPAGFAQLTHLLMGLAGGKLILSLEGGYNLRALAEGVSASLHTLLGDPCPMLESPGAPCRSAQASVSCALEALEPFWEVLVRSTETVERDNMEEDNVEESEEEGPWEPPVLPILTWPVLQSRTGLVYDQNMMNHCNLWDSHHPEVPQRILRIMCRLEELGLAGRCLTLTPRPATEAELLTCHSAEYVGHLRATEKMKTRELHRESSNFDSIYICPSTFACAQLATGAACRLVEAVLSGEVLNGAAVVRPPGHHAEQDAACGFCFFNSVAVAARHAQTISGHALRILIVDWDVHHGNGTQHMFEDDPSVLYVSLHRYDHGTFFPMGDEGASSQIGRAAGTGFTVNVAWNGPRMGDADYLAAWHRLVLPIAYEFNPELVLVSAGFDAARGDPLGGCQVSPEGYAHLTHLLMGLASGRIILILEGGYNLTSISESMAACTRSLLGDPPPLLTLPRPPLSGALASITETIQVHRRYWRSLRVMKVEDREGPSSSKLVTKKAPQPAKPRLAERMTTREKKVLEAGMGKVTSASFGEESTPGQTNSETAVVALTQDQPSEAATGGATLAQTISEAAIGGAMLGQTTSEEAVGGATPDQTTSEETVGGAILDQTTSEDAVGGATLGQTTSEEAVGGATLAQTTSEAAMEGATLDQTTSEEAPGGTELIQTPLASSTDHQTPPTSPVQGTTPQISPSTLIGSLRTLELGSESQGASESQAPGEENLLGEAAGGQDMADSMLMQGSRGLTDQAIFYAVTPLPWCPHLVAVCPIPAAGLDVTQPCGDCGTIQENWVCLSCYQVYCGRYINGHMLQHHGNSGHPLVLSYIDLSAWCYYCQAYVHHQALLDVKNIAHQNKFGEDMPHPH

Histone deacetylase 1 = Histone deacetylase 1 (Homo sapiens, UniProt Q13547); experiment: Inhibition of human recombinant C-terminal His/FLAG-tagged full length HDAC1 expressed in insect SF9 cells using fluorogenic ZMAL as substrate after 90 mins by fluorescence-based assay
Histone deacetylase 1, sequence (Q13547 whole entry): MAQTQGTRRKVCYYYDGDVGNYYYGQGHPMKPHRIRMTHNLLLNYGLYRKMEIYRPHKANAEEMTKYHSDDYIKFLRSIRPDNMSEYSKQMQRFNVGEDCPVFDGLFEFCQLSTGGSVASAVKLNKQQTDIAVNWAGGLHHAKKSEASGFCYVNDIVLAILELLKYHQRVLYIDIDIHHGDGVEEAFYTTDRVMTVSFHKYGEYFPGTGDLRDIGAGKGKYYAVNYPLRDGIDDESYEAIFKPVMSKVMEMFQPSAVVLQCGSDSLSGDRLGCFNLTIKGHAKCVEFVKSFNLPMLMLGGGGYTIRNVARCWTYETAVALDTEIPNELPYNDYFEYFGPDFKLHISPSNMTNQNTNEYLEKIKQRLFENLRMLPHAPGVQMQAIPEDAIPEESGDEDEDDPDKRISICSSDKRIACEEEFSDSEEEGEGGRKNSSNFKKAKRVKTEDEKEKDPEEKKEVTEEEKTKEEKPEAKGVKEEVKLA

NB-4 [5] = experiment: Induction of cell cycle arrest in human NB4 cells assessed as accumulation at G1 phase at 5 uM after 30 hrs by propidium iodide-based FACS analysis; assay type: functional
[6] = Inhibition of class 1 HDAC in human NB4 cells assessed as levels of histone H3 acetylation at lysine 9/14 at 1 uM after 30 hrs by Western blot analysis relative to control
[7] = Inhibition of class 1 HDAC in human NB4 cells assessed as levels of histone H3 acetylation at lysine 9/14 at 5 uM after 30 hrs by Western blot analysis relative to control
[8] = Inhibition of class 1 HDAC in human U87 cells assessed as levels of histone H3 acetylation at lysine 9/14 at 1 uM after 30 hrs by Western blot analysis relative to control; conditions: u87, 30 h
[9] = Inhibition of class 1 HDAC in human U87 cells assessed as levels of histone H3 acetylation at lysine 9/14 at 5 uM after 30 hrs by Western blot analysis relative to control; conditions: u87, 30 h
[10] = molecular target: T2, Protein deacetylase HDAC6 (Homo sapiens) (UniProt Q9UBN7); experiment: Inhibition of HDAC6 in human U87 cells assessed as increase in levels of alpha-tubulin acetylation after 30 hrs by Western blot analysis; assay type: cell-based
T2 sequence (whole entry): T1 sequence (Q9UBN7 whole entry)

Histone deacetylase 8 = molecular target: T3, Histone deacetylase 8 (Homo sapiens, UniProt Q9BY41); experiment: Inhibition of human recombinant HDAC8 using fluor de Lys(R) as substrate after 90 mins by fluorescence-based assay
T3 sequence (Q9BY41 whole entry): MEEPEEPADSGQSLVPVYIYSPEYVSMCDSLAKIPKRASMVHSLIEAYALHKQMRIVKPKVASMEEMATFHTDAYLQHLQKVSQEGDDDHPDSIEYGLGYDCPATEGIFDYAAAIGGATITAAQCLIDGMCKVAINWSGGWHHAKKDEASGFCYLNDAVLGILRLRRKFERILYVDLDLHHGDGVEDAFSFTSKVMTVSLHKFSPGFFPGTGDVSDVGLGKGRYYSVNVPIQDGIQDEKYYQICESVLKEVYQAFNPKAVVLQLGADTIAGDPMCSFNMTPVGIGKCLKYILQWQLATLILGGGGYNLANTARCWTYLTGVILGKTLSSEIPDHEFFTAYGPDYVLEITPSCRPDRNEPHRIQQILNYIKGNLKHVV

NB-4 [11] = experiment: Induction of cell cycle arrest in human NB4 cells assessed as accumulation at G1 phase after 30 hrs by propidium iodide-based FACS analysis; assay type: functional
[12] = Inhibition of class 1 HDAC in human SH-SY5Y cells assessed as levels of histone H3 acetylation at lysine 9/14 at 1 uM after 30 hrs by Western blot analysis relative to control
[13] = Inhibition of class 1 HDAC in human SH-SY5Y cells assessed as levels of histone H3 acetylation at lysine 9/14 at 5 uM after 30 hrs by Western blot analysis relative to control
NB-4 [14] = experiment: Induction of cell death in human NB4 cells assessed as DNA fragmentation at 5 uM after 30 hrs by propidium iodide-based FACS analysis; assay type: functional
[15] = molecular target: T2, Protein deacetylase HDAC6 (Homo sapiens); experiment: Inhibition of HDAC6 in human SH-SY5Y cells assessed as reduction in cell migration at 5 uM measured every 2 mins for 4 days by RTCA based assay
[16] = Cytotoxicity against mouse NIH/3T3 cells assessed as reduction in cell viability by neutral red uptake test; assay type: cell-based, NIH3T3; conditions: read-out: TC50 (the source's name)
[17] = molecular target: T2, Protein deacetylase HDAC6 (Homo sapiens); experiment: Inhibition of HDAC6 in human SH-SY5Y cells assessed as increase in levels of alpha-tubulin acetylation after 30 hrs by Western blot analysis; assay type: cell-based

SMILES	Ratio IC50 (Homo sapiens [1])	IC50 [4] [µM]	IC50 (Histone deacetylase 1) [µM]	FC [6]	FC [7]	FC [8]	FC [9]	also measured
CC(=O)N1CCC2(CC1)CN(Cc1ccc(C(=O)NO)cc1)c1ccccc12	116	0.0625	7.29	–	–	–	–	–
O=C(CCCCCCC(=O)Nc1ccccc1)NO	–	–	–	–	–	–	–	Activity (NB-4 [11]): Active
CC(C)(C)OC(=O)N1CCC2(CC1)CN(Cc1ccc(C(=O)NO)cc1)c1ccccc12	95	0.0419	4	1.12	0.96	2.74	2.12	IC50 (Histone deacetylase 8): 1.6 µM; FC [12]: 1.1; FC [13]: 1.11; Activity (NB-4 [14]): Active; inhibition [15]: Active; CC50 [16]: 23 µM; inhibition [17]: Dose-dependent effect
CN1CCc2c(c3ccccc3n2Cc2ccc(C(=O)NO)cc2)C1 [TUBASTATIN A]	–	–	–	0.84	0.97	1.68 to 1.97	2.18 to 2.38	FC [12]: 1.13; FC [13]: 1.17
O=C(NO)c1ccc(CN2CC3(CCCCC3)c3ccccc32)cc1	166	0.0409	6.79	2.27	2.58	1.77	2.21	IC50 (Histone deacetylase 8): 0.253 µM; inhibition [10]: Dose-dependent effect

Second part, led by results:

Ratio IC50 (Homo sapiens [1])	IC50 [4] [µM]	IC50 (Histone deacetylase 1) [µM]	FC [6]	FC [7]	FC [8]	FC [9]	SMILES	also measured
10	–	–	–	–	–	–	O=C(CCCCCCNC(=O)c1cnc(N(c2ccccc2)c2ccccc2Cl)nc1)NO	Ratio IC50 (Homo sapiens [2]): 10; Ratio IC50 (Homo sapiens [3]): 10
74	0.0601	4.47	–	–	–	–	CC(C)(C)C(=O)N1CCC2(CC1)CN(Cc1ccc(C(=O)NO)cc1)c1ccccc12	Activity (NB-4 [5]): Active
57	0.204	11.7	1.02	2.44	1.83	1.6	CN1CCC2(CC1)CN(Cc1ccc(C(=O)NO)cc1)c1ccccc12	inhibition [10]: Dose-dependent effect
10	–	–	–	–	–	–	O=C(CCCCCCNC(=O)c1cnc(N(c2ccccc2)c2ccccc2)nc1)NO	Ratio IC50 (Homo sapiens [2]): 10; Ratio IC50 (Homo sapiens [3]): 10
15	0.719	10.9	–	–	–	–	CC(C)(C)OC(=O)N1CCC2(CC1)CN(Cc1ccc(C(=O)NO)s1)c1ccccc12	IC50 (Histone deacetylase 8): 1.34 µM
6	1.78	11.4	–	–	–	–	CN1CCC2(CC1)CN(Cc1ccc(C(=O)NO)s1)c1ccccc12	–
